In ChEMBL document CHEMBL4138123, “Design, synthesis and biological evaluation of novel pyrazolochalcones as potential modulators of PI3K/Akt/mTOR pathway and inducers of apoptosis in breast cancer cells” (Eur J Med Chem, 2017):

Experiments:
PC-3 = test: Cytotoxicity against human PC3 cells assessed as growth inhibition after 48 hrs by sulforhodamine B assay; type: functional; conditions: PC-3, 48 h
MDA-MB-231 = test: Cytotoxicity against human MDA-MB-231 cells assessed as growth inhibition after 48 hrs by MTT assay; type: functional, cell-based; conditions: MDA-MB-231, 48 h
NCI-H226 = test: Cytotoxicity against human NCI-H226 cells assessed as growth inhibition after 48 hrs by sulforhodamine B assay; type: functional; conditions: NCI-H226, 48 h
HCT-116 = test: Cytotoxicity against human HCT116 cells assessed as growth inhibition after 48 hrs by sulforhodamine B assay; type: functional; conditions: HCT-116, 48 h
NCI-H322M = test: Cytotoxicity against human NCI-H322M cells assessed as growth inhibition after 48 hrs by sulforhodamine B assay; type: functional
OVCAR-4 = test: Cytotoxicity against human OVCAR4 cells assessed as growth inhibition after 48 hrs by sulforhodamine B assay; type: functional; conditions: OVCAR-4, 48 h

Compound: COc1ccc(-c2cc(/C=C/C(=O)c3ccc4c(c3)OCO4)[nH]n2)cc1OC
- GI50 (PC-3): 1980 nM
- IC50 (MDA-MB-231): 2300 nM
- GI50 (NCI-H226): 1660 nM
- GI50 (HCT-116): 360 nM
- GI50 (NCI-H322M): 2670 nM
- GI50 (OVCAR-4): 1920 nM
